Laboratory results taken from US20080241260A1, “Compositions for Enhanced Absorption of Biologically Active Agents” (priority 2005, published 2008).

System: streptozotocin-induced diabetic rats
Test: Effect of formulations on serum glucose level in diabetic rat model
Format: in vivo, male albino Wistar rats
Conditions: S.C., 1 u/kg

Insulin solution: Insulin solution, pH 3, given subcutaneously at 1 u/kg as reference
% Decrease in serum glucose level After 1 hr (1 hr): 76.62 ± 1.08%
% Decrease in serum glucose level After 2 hr (2 hr): 83.26 ± 2.56%
% Decrease in serum glucose level After 3 hr (3 hr): 66.75 ± 5.39%
% Decrease in serum glucose level After 5 hr (5 hr): 38.26 ± 3.60%
